Assays:
Assay type in all cases: in vivo
soybean (Glycine max) = assay: Test C postemergence, soybean; details: for Soybean plant response rating: visual injury, 0 to 100 scale (0 no effect, 100 complete control); for Plant response rating (0 to 100 scale), Soybean: 0 is no effect, 100 is complete control
From the text: (§1) Seeds of plant species selected from blackgrass (Alopecurus myosuroides), corn (Zea mays), foxtail, giant (giant foxtail, Setaria faberi), goosegrass (Eleusine indica), kochia (Bassia scoparia), oat, wild (wild oat, Avena fatua), pigweed, palmer (palmer amaranth, Amaranthus palmeri), ragweed (common ragweed, Ambrosia artemisiifolia), ryegrass, Italian (Italian ryegrass, Lolium multiflorum), soybean (Glycine max) and wheat (Triticum aestivum) were planted into a blend of loam soil and sand and treated preemergence with a directed soil spray using test chemicals formulated in a non-phytotoxic solvent mixture which included a surfactant.
(§2) At the same time, plants selected from these crop and weed species and also galium (catchweed bedstraw, Galium aparine) and horseweed (Erigeron canadensis) were planted in pots containing the same blend of loam soil and sand and treated with postemergence applications of test chemicals formulated in the same manner. Plants ranged in height from 2 to 10 cm and were in the one- to two-leaf stage for the postemergence treatment. Treated plants and untreated controls were maintained in a greenhouse for 10 or 12 days, after which time all treated plants were compared to untreated controls and visually evaluated for injury. Plant response ratings, summarized in Table A, are based on a 0 to 100 scale where 0 is no effect and 100 is complete control. A dash (-) response means no test result.

corn (Zea mays) = assay: Test C postemergence, corn; details: for Corn plant response rating: visual injury, 0 to 100 scale (0 no effect, 100 complete control); for Plant response rating (0 to 100 scale), Corn: 0 is no effect, 100 is complete control
From the text: as §1, §2

[1] = system: blackgrass (Alopecurus myosuroides); assay: Test C postemergence, blackgrass; details: 125 g ai/ha Postemergence; 0 is no effect, 100 is complete control
[2] = system: blackgrass (Alopecurus myosuroides); assay: Test C preemergence, blackgrass; details: 0 is no effect, 100 is complete control
From the text: as §1, §2

Cc1c(N2CCCC(OC3CCC3)C2=O)cc(N(COC(=O)C(C)(C)C)S(=O)(=O)C(F)(F)F)c(C)c1F (stereo not drawn) [Compound 39]
Soybean plant response rating (soybean (Glycine max); 31 g ai/ha Postemergence): 50
Soybean plant response rating (soybean (Glycine max); 125 g ai/ha Postemergence): 90
Corn plant response rating (corn (Zea mays); 31 g ai/ha Postemergence): 0
Plant response rating (0 to 100 scale), Corn (corn (Zea mays); 125 g ai/ha Postemergence): 10
Plant response rating (0 to 100 scale), Blackgrass [1]: 10
Plant response rating (0 to 100 scale), Blackgrass ([2]; 31 g ai/ha Preemergence): 0
Plant response rating (0 to 100 scale), Blackgrass ([2]; 125 g ai/ha Preemergence): 20

COC(=O)N(c1cc(N2CCC(OC3CC3)C2=O)c(C)cc1C)S(=O)(=O)C(F)(F)F (stereo not drawn) [Compound 16]
Soybean plant response rating (soybean (Glycine max); 31 g ai/ha Postemergence): 40
Plant response rating (0 to 100 scale), Soybean (soybean (Glycine max); 125 g ai/ha Postemergence): 60
Corn plant response rating (corn (Zea mays); 31 g ai/ha Postemergence): 0
Plant response rating (0 to 100 scale), Corn (corn (Zea mays); 125 g ai/ha Postemergence): 0
Plant response rating (0 to 100 scale), Blackgrass [1]: 0
Plant response rating (0 to 100 scale), Blackgrass ([2]; 31 g ai/ha Preemergence): 0
Plant response rating (0 to 100 scale), Blackgrass ([2]; 125 g ai/ha Preemergence): 0

Cc1cc(Cl)c(N(COC(=O)C(C)(C)C)S(=O)(=O)C(F)(F)F)cc1N1CCC(OC2CC2)C1=O (stereo not drawn) [Compound 33]
Soybean plant response rating (soybean (Glycine max); 31 g ai/ha Postemergence): 80
Soybean plant response rating (soybean (Glycine max); 125 g ai/ha Postemergence): 100
Corn plant response rating (corn (Zea mays); 31 g ai/ha Postemergence): 80
Plant response rating (0 to 100 scale), Corn (corn (Zea mays); 125 g ai/ha Postemergence): 90
Plant response rating (0 to 100 scale), Blackgrass [1]: 60
Plant response rating (0 to 100 scale), Blackgrass ([2]; 31 g ai/ha Preemergence): 20
Plant response rating (0 to 100 scale), Blackgrass ([2]; 125 g ai/ha Preemergence): 80

Cc1cc(C)c(N2CCC(OCc3ccccc3)C2=O)cc1NS(=O)(=O)C(F)(F)F (stereo not drawn) [Compound 61]
Soybean plant response rating (soybean (Glycine max); 31 g ai/ha Postemergence): 60
Soybean plant response rating (soybean (Glycine max); 125 g ai/ha Postemergence): 90
Corn plant response rating (corn (Zea mays); 31 g ai/ha Postemergence): 10
Corn plant response rating (corn (Zea mays); 125 g ai/ha Postemergence): 60
Plant response rating (0 to 100 scale), Blackgrass ([2]; 31 g ai/ha Preemergence): 60
Plant response rating (0 to 100 scale), Blackgrass ([2]; 125 g ai/ha Preemergence): 90

Cc1cc(C)c(N2CCC(OCC3CCCC3)C2=O)cc1NS(=O)(=O)C(F)(F)F (stereo not drawn) [Compound 57]
Soybean plant response rating (soybean (Glycine max); 31 g ai/ha Postemergence): 80
Soybean plant response rating (soybean (Glycine max); 125 g ai/ha Postemergence): 100
Corn plant response rating (corn (Zea mays); 31 g ai/ha Postemergence): 0
Corn plant response rating (corn (Zea mays); 125 g ai/ha Postemergence): 40
Plant response rating (0 to 100 scale), Blackgrass ([2]; 31 g ai/ha Preemergence): 40
Plant response rating (0 to 100 scale), Blackgrass ([2]; 125 g ai/ha Preemergence): 80

C#CC(C)OC1CCN(c2cc(NS(=O)(=O)C(F)(F)F)c(C)cc2C)C1=O (stereo not drawn) [Compound 58]
Soybean plant response rating (soybean (Glycine max); 31 g ai/ha Postemergence): 60
Soybean plant response rating (soybean (Glycine max); 125 g ai/ha Postemergence): 90
Corn plant response rating (corn (Zea mays); 31 g ai/ha Postemergence): 60
Corn plant response rating (corn (Zea mays); 125 g ai/ha Postemergence): 90
Plant response rating (0 to 100 scale), Blackgrass ([2]; 31 g ai/ha Preemergence): 80
Plant response rating (0 to 100 scale), Blackgrass ([2]; 125 g ai/ha Preemergence): 100

Cc1c(NS(=O)(=O)C(F)(F)F)cc(N2CCC(OC3CCC3)C2=O)c(C)c1F (stereo not drawn) [Compound 25]
Soybean plant response rating (soybean (Glycine max); 31 g ai/ha Postemergence): 100
Soybean plant response rating (soybean (Glycine max); 125 g ai/ha Postemergence): 100
Corn plant response rating (corn (Zea mays); 31 g ai/ha Postemergence): 30
Plant response rating (0 to 100 scale), Corn (corn (Zea mays); 125 g ai/ha Postemergence): 60
Plant response rating (0 to 100 scale), Blackgrass [1]: 90
Plant response rating (0 to 100 scale), Blackgrass ([2]; 31 g ai/ha Preemergence): 80
Plant response rating (0 to 100 scale), Blackgrass ([2]; 125 g ai/ha Preemergence): 90

Cc1c(N2CCC(OC3CC3)C2=O)cc(N(COC(=O)C(C)(C)C)S(=O)(=O)C(F)(F)F)c(C)c1F (stereo not drawn) [Compound 23]
Soybean plant response rating (soybean (Glycine max); 31 g ai/ha Postemergence): 60
Plant response rating (0 to 100 scale), Soybean (soybean (Glycine max); 125 g ai/ha Postemergence): 60
Corn plant response rating (corn (Zea mays); 31 g ai/ha Postemergence): 30
Plant response rating (0 to 100 scale), Corn (corn (Zea mays); 125 g ai/ha Postemergence): 90
Plant response rating (0 to 100 scale), Blackgrass [1]: 50
Plant response rating (0 to 100 scale), Blackgrass ([2]; 31 g ai/ha Preemergence): 0
Plant response rating (0 to 100 scale), Blackgrass ([2]; 125 g ai/ha Preemergence): 10

Cc1c(N2CCCC(OC3CC3)C2=O)cc(N(COC(=O)C(C)(C)C)S(=O)(=O)C(F)(F)F)c(C)c1F (stereo not drawn) [Compound 37]
Soybean plant response rating (soybean (Glycine max); 31 g ai/ha Postemergence): 60
Soybean plant response rating (soybean (Glycine max); 125 g ai/ha Postemergence): 70
Corn plant response rating (corn (Zea mays); 31 g ai/ha Postemergence): 10
Plant response rating (0 to 100 scale), Corn (corn (Zea mays); 125 g ai/ha Postemergence): 90
Plant response rating (0 to 100 scale), Blackgrass [1]: 60
Plant response rating (0 to 100 scale), Blackgrass ([2]; 31 g ai/ha Preemergence): 10
Plant response rating (0 to 100 scale), Blackgrass ([2]; 125 g ai/ha Preemergence): 60

Cc1cc(C)c(N(C(=O)OCC(C)C)S(=O)(=O)C(F)(F)F)cc1N1CCC(OC2CC2)C1=O (stereo not drawn) [Compound 21]
Soybean plant response rating (soybean (Glycine max); 31 g ai/ha Postemergence): 60
Plant response rating (0 to 100 scale), Soybean (soybean (Glycine max); 125 g ai/ha Postemergence): 60
Corn plant response rating (corn (Zea mays); 31 g ai/ha Postemergence): 90
Plant response rating (0 to 100 scale), Corn (corn (Zea mays); 125 g ai/ha Postemergence): 90
Plant response rating (0 to 100 scale), Blackgrass [1]: 80
Plant response rating (0 to 100 scale), Blackgrass ([2]; 31 g ai/ha Preemergence): 10
Plant response rating (0 to 100 scale), Blackgrass ([2]; 125 g ai/ha Preemergence): 80

Cc1c(NS(=O)(=O)C(F)(F)F)cc(N2CCC(OC3CCC3)C2=O)c(C)c1C (stereo not drawn) [Compound 45]
Soybean plant response rating (soybean (Glycine max); 31 g ai/ha Postemergence): 80
Soybean plant response rating (soybean (Glycine max); 125 g ai/ha Postemergence): 100
Corn plant response rating (corn (Zea mays); 31 g ai/ha Postemergence): 20
Corn plant response rating (corn (Zea mays); 125 g ai/ha Postemergence): 90
Plant response rating (0 to 100 scale), Blackgrass ([2]; 31 g ai/ha Preemergence): 60
Plant response rating (0 to 100 scale), Blackgrass ([2]; 125 g ai/ha Preemergence): 90

Cc1cc(C)c(N2CCC(OCC3CCCO3)C2=O)cc1NS(=O)(=O)C(F)(F)F (stereo not drawn) [Compound 42]
Soybean plant response rating (soybean (Glycine max); 31 g ai/ha Postemergence): 70
Soybean plant response rating (soybean (Glycine max); 125 g ai/ha Postemergence): 80
Corn plant response rating (corn (Zea mays); 31 g ai/ha Postemergence): 20
Corn plant response rating (corn (Zea mays); 125 g ai/ha Postemergence): 90
Plant response rating (0 to 100 scale), Blackgrass ([2]; 31 g ai/ha Preemergence): 20
Plant response rating (0 to 100 scale), Blackgrass ([2]; 125 g ai/ha Preemergence): 70

C=C(C)COC1CCN(c2cc(NS(=O)(=O)C(F)(F)F)c(C)cc2C)C1=O (stereo not drawn) [Compound 59]
Soybean plant response rating (soybean (Glycine max); 31 g ai/ha Postemergence): 60
Soybean plant response rating (soybean (Glycine max); 125 g ai/ha Postemergence): 80
Corn plant response rating (corn (Zea mays); 31 g ai/ha Postemergence): 20
Corn plant response rating (corn (Zea mays); 125 g ai/ha Postemergence): 90
Plant response rating (0 to 100 scale), Blackgrass ([2]; 31 g ai/ha Preemergence): 70
Plant response rating (0 to 100 scale), Blackgrass ([2]; 125 g ai/ha Preemergence): 90

Cc1cc(C)c(N(COC(=O)C(C)(C)C)S(=O)(=O)C(F)(F)F)cc1N1CCC(OCC2CC2(F)F)C1=O (stereo not drawn) [Compound 54]
Soybean plant response rating (soybean (Glycine max); 31 g ai/ha Postemergence): 50
Soybean plant response rating (soybean (Glycine max); 125 g ai/ha Postemergence): 60
Corn plant response rating (corn (Zea mays); 31 g ai/ha Postemergence): 0
Corn plant response rating (corn (Zea mays); 125 g ai/ha Postemergence): 80

Cc1cc(C)c(N2CCC(OC3COC3)C2=O)cc1NS(=O)(=O)C(F)(F)F (stereo not drawn) [Compound 34]
Soybean plant response rating (soybean (Glycine max); 31 g ai/ha Postemergence): 60
Soybean plant response rating (soybean (Glycine max); 125 g ai/ha Postemergence): 70
Corn plant response rating (corn (Zea mays); 31 g ai/ha Postemergence): 60
Plant response rating (0 to 100 scale), Corn (corn (Zea mays); 125 g ai/ha Postemergence): 90
Plant response rating (0 to 100 scale), Blackgrass [1]: 60
Plant response rating (0 to 100 scale), Blackgrass ([2]; 31 g ai/ha Preemergence): 30
Plant response rating (0 to 100 scale), Blackgrass ([2]; 125 g ai/ha Preemergence): 50
